Measured values published in patent US10471139B2, “Toll-like receptor agonists” (The University of Kansas, priority 2013, dated 2019).
Read-outs that look alike come from different tables or passages of the source. Each block holds one compound with its values, some of them ahead of it.

Key:
human TLR8 = molecular target: T1, human TLR8 (Homo sapiens, UniProt Q9NR97); test: Human TLR8 reporter gene assay (NF-κB induction), HEK-Blue-8 cells; assay type: cell-based
T1 construct: expressed in transfected cells; host or cells: HEK293 (HEK-Blue-8)
T1 sequence (Q9NR97 27-1041): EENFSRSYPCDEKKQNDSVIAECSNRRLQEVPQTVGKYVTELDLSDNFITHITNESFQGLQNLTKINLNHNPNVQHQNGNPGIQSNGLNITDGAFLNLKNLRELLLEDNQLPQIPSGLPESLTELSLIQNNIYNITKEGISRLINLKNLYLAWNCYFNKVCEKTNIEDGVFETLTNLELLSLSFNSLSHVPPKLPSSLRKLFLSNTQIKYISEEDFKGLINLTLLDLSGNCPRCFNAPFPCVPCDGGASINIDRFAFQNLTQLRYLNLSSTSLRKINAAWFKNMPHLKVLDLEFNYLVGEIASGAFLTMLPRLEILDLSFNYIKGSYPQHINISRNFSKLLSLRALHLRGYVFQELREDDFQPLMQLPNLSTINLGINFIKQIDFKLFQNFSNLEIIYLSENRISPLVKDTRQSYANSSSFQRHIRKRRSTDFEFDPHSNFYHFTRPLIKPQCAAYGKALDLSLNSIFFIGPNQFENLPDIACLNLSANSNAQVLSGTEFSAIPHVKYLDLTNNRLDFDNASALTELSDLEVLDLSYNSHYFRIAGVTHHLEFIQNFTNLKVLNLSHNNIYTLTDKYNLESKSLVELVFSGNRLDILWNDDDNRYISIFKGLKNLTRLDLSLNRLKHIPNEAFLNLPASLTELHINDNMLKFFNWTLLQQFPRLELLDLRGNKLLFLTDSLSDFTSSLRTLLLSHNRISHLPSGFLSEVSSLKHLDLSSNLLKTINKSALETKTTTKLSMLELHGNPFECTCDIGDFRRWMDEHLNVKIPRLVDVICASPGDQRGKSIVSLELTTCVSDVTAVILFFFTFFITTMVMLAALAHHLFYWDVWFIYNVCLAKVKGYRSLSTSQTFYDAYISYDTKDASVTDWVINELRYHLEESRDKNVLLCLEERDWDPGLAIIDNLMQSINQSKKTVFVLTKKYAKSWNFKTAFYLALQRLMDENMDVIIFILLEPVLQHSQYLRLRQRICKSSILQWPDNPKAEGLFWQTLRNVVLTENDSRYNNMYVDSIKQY
Text: (§1) Human TLR-7/-8 Reporter Gene Assays (NF-κB Induction).
(§2) The induction of NF-κB was quantified using HEK-Blue-7 (hTLR7-specific) and HEK-Blue-8 (hTLR8-specific) cells. HEK293 cells stably co-transfected with human TLR7 or human TLR8, MD2, and secreted alkaline phosphatase (sAP), were maintained in HEK-Blue™ Selection medium containing zeocin and normocin. Stable expression of secreted alkaline phosphatase (sAP) under control of NF-κB/AP-1 promoters is inducible by appropriate TLR agonists, and extracellular sAP in the supernatant is proportional to NF-κB induction.
(§3) HEK293 cells stably co-transfected with the appropriate hTLR (or NOD) and secreted alkaline phosphatase (sAP) were maintained in HEK-Blue™ Selection medium. Stable expression of secreted alkaline phosphatase (sAP) under control of NF-κB/AP-1 promoters is inducible by appropriate TLR/NOD agonists, and extracellular sAP in the supernatant is proportional to NF-κB induction.

human TLR7 = molecular target: T2, human TLR7 (Homo sapiens, UniProt Q9NYK1); test: Human TLR7 reporter gene assay (NF-κB induction), HEK-Blue-7 cells; assay type: cell-based; conditions: for hTLR7-agonistic Activity (EC50): human TLR7-specific reporter gene assay, Inactive = no activity up to 500 μg/mL
T2 construct: expressed in transfected cells; host or cells: HEK293 (HEK-Blue-7)
T2 sequence (Q9NYK1 27-1049): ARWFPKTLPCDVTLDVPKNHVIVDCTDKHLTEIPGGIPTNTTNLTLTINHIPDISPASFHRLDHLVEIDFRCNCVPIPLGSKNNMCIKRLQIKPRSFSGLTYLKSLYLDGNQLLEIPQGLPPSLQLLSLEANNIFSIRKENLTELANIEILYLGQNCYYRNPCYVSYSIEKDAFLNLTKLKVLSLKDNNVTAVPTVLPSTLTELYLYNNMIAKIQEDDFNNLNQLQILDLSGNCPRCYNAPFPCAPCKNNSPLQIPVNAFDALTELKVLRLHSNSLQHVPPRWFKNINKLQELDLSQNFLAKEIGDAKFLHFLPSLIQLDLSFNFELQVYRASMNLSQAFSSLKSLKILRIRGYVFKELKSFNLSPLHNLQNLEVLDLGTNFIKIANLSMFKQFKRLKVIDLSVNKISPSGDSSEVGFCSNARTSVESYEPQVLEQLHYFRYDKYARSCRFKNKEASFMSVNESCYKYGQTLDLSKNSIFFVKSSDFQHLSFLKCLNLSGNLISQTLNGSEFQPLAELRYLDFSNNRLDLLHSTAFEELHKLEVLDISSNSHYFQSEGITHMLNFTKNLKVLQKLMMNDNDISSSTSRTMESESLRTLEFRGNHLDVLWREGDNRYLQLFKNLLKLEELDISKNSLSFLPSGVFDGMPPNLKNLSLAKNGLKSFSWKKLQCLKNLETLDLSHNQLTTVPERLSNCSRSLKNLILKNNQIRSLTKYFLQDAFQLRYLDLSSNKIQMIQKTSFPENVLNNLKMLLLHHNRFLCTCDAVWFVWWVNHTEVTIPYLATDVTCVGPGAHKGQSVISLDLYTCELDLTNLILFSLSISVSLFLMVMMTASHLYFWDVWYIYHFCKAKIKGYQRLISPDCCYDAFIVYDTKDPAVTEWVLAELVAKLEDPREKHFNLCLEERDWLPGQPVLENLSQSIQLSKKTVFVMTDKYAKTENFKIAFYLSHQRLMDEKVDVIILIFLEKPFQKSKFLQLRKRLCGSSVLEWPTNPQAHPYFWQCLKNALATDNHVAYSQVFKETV
Text: as §1, §2, §3

[1] = human TLR 8-specific reporter gene assays, read-out: hTLR8 Agonistic Activity (EC50)
[2] = human TLR 8-specific reporter gene assays
[3] = primary screens, read-out: TLR8-agonistic activity EC50

Compound: CCCCc1nc2c(N)nc(-c3ccc(C(N)=O)cc3)cc2n1Cc1ccccc1 [Compound 23c, 4-(4-Amino-1-benzyl-2-butyl-1H-imidazo[4,5-c]pyridin-6-yl)benzamide]
hTLR7-agonistic Activity (EC50) (human TLR7): Inactive

Compound: CCCCc1nc2c(N)nc(NCc3cccc4ccccc34)cc2n1Cc1ccccc1 [Compound 19n, 1-Benzyl-2-butyl-N^6-(naphthalen-1-ylmethyl)-1H-imidazo[4,5-c]pyridine-4,6-diamine]
hTLR7-agonistic Activity (EC50) (human TLR7): Inactive | TLR7-specific agonistic activity EC50 (human TLR7; primary screen): quiescent

Compound: CCCCCn1c(N)nc2c(O)cccc21 [Compound A36, 2-Amino-1-pentyl-1H-benzoimidazol-4-ol]
EC50 (human TLR8; [1]): 5.01 µM

Compound: CCCCCn1c(N)nc2c(-c3ccccc3)cccc21 [Compound A31l, 1-pentyl-4-phenyl-1H-benzo[d]imidazol-2-amine]
hTLR8 Agonistic Activity (EC50) (human TLR8; [2]): Inactive | TLR8-agonistic activity EC50 (human TLR8; primary screens): abrogated activity

Compound: CCCCCn1c(NC(C)=O)nc2ccccc21 [Compound A10, N-(1-pentyl-1H-benzo[d]imidazol-2-yl)acetamide]
hTLR8 Agonistic Activity (EC50) (human TLR8; [2]): Inactive | TLR8-agonistic activity EC50 (human TLR8; primary screens): completely abrogated activity

Compound: CCCCCn1c(N)nc2cccc(C)c21 [Compound A31d, 7-Methyl-1-pentyl-1H-benzo[d]imidazol-2-amine]
EC50 (human TLR8; [1]): 6.61 µM

Compound: CCCCn1c(N)nc2ccccc21 [Compound A8a, 1-butyl-1H-benz[d]imidazol-2-amine]
EC50 (human TLR8; [1]): 7.3 µM

Compound: CCCCCn1c(N)nc2c(Cl)cccc21 [Compound A31g, 4-Chloro-1-pentyl-1H-benzo[d]imidazol-2-amine]
hTLR8 Agonistic Activity (EC50) (human TLR8; [2]): Inactive

Compound: CCCCCn1c(N)nc2c(OC)cccc21 [Compound A31e, 4-Methoxy-1-pentyl-1H-benzo[d]imidazol-2-amine]
EC50 (human TLR8; [3]): 3.74 µM

Compound: CCCCCn1c(N)nc2c(Br)cccc21 [Compound A31i, 4-Bromo-1-pentyl-1H-benzo[d]imidazol-2-amine]
hTLR8 Agonistic Activity (EC50) (human TLR8; [2]): Inactive

Compound: CCCCCn1c(N)nc2c([N+](=O)[O-])cccc21 [Compound A39, 4-Nitro-1-pentyl-1H-benzoimidazol-2-ylamine]
hTLR8 Agonistic Activity (EC50) (human TLR8; [2]): Inactive | TLR8-agonistic activity EC50 (human TLR8; primary screens): inactive

Compound: CCCCCn1c(N)nc2ccncc21 [Compound A27c, 3-Pentyl-3H-imidazo[4,5-c]pyridin-2-amine]
hTLR8 Agonistic Activity (EC50) (human TLR8; [2]): Inactive

Compound: CCCCCn1c(N)nc2ccc3ccccc3c21 [Compound A18, 1-pentyl-1H-naphtho[1,2-d]imidazol-2-amine]
hTLR8 Agonistic Activity (EC50) (human TLR8; [2]): Inactive

Compound: NCc1cccc(Cn2c(N)nc3ccccc32)c1 [Compound A8f, 1-(3-(aminomethyl)benzyl)-1H-benzo[d]imidazol-2-amine]
hTLR8 Agonistic Activity (EC50) (human TLR8; [2]): Inactive

Compound: CCCCCn1c(N)nc2c(F)cccc21 [Compound A31f, 4-Fluoro-1-pentyl-1H-benzo[d]imidazol-2-amine]
hTLR8 Agonistic Activity (EC50) (human TLR8; [2]): Inactive

Compound: CCCCCn1c(N)nc2ccccc21 [Compound A8b, 1-Pentyl-1H-benzo[d]imidazol-2-amine]
EC50 (human TLR8; [3]): 3.23 µM

Compound: CCCCCn1c(N)nc2c(OCc3ccccc3)cccc21 [Compound A35, 4-Benzyloxy-1-pentyl-1H-benzoimidazol-2-ylamine]
hTLR8 Agonistic Activity (EC50) (human TLR8; [2]): Inactive | TLR8-agonistic activity EC50 (human TLR8; primary screens): abrogated activity

Compound: CCCCCn1c(N)nc2cc3ccccc3cc21 [Compound A13, 1-Pentyl-1H-naphtho[2,3-d]imidazol-2-amine]
hTLR8 Agonistic Activity (EC50) (human TLR8; [2]): Inactive

Now from value to compound:

EC50 (human TLR8; [1]): 1.65 µM
Compound: CCCCCn1c(N)nc2c(CC)cccc21 [Compound A31j, 4-Ethyl-1-pentyl-1H-benzo[d]imidazol-2-amine]

hTLR7-agonistic Activity (EC50) (human TLR7): Inactive
Compound: CCCCc1nc2c(N)nc(-c3ccsc3)cc2n1Cc1ccccc1 [Compound 23f, 1-Benzyl-2-butyl-6-(thiophen-3-yl)-1H-imidazo[4,5-c]pyridin-4-amine]

hTLR8 Agonistic Activity (EC50) (human TLR8; [2]): Inactive
Compound: CCCCCn1c(N)nc2cnccc21 [Compound A27b, 1-Pentyl-1H-imidazo[4,5-c]pyridin-2-amine]

EC50 (human TLR8; [1]): 7.12 µM
Compound: CCCCCn1c(N)nc2c(N(C)C)cccc21 [Compound A31k, N^4,N^4-demethyl-1-pentyl-1H-benzo[d]imidazole-2,4-diamine]

EC50 (human TLR8; [3]): 3.16 µM
Compound: CCCCCn1c(N)nc2c3ccccc3ccc21 [Compound A23, 3-Pentyl-3H-naphtho[1,2-d]imidazol-2-amine]

EC50 (human TLR8; [1]): 6.6 µM
Compound: CCCCCn1c(N)nc2c(N)cccc21 [Compound A40, 1-Pentyl-1H-benzoimidazole-2,4-diamine]

EC50 (human TLR8; [1]): 3.96 µM
Compound: CCCCCCn1c(N)nc2ccccc21 [Compound A8c, 1-Hexyl-1H-benzo[d]imidazol-2-amine]

hTLR8 Agonistic Activity (EC50) (human TLR8; [2]): Inactive | TLR8-agonistic activity EC50 (human TLR8; primary screens): abrogated activity
Compound: CCCCCn1c(N)nc2c(Cc3ccccc3)cccc21 [Compound A31m, 4-benzyl-1-pentyl-1H-benzo[d]imidazol-2-amine]

hTLR8 Agonistic Activity (EC50) (human TLR8; [2]): Inactive
Compound: CCCCCn1c(N)nc2c(C(F)(F)F)cccc21 [Compound A31h, 1-Pentyl-4-(trifluoromethyl)-1H-benzo[d]imidazol-2-amine]

EC50 (human TLR8; [1]): 7.21 µM
Compound: CCCCCn1c(N)nc2ccc(C)cc21 [Compound A31c, 6-Methyl-1-pentyl-1H-benzo[d]imidazol-2-amine]

hTLR8 Agonistic Activity (EC50) (human TLR8; [2]): Inactive
Compound: CCCCCn1c(N)nc2cccnc21 [Compound A27d, 3-Pentyl-3H-imidazo[4,5-b]pyridin-2-amine]

hTLR8 Agonistic Activity (EC50) (human TLR8; [2]): Inactive
Compound: Nc1nc2ccccc2n1Cc1ccccc1 [Compound A8d, 1-Benzyl-1H-benzo[d]imidazol-2-amine]

hTLR8 Agonistic Activity (EC50) (human TLR8; [2]): Inactive
Compound: CCCCCn1c(N)nc2ncccc21 [Compound A27a, 1-Pentyl-1H-imidazo[4,5-b]pyridin-2-amine]

EC50 (human TLR8; [1]): 4.57 µM
Compound: CCCCCn1c(N)nc2cc(C)ccc21 [Compound A31b, 5-Methyl-1-pentyl-1H-benzo[d]imidazol-2-amine]

hTLR8 Agonistic Activity (EC50) (human TLR8; [2]): Inactive | TLR8-agonistic activity EC50 (human TLR8; primary screens): completely abrogated activity
Compound: CCCCOC(=O)n1c(N)nc2ccccc21 [Compound A9, butyl 2-amino-1H-benzo[d]imidazole-1-carboxylate]

hTLR8 Agonistic Activity (EC50) (human TLR8; [2]): Inactive | TLR8-agonistic activity EC50 (human TLR8; primary screens): inactive
Compound: CCCCC1(O)C(N)=Nc2ccccc21 (stereo not drawn) [Compound A5, 2-amino-3-butyl-3H-indol-3-ol]
